According to patent publication US20050244907A1, “Methods, compositions, and kits for analysis of enzyme activity in cells” (Applera Corporation, priority 2003, published 2005):

How the values were obtained:
CHO cells = assay: Cell staining with liposomes containing DDAO-gal, CHO cells (FMAT fluorescence); assay type: cell-based, Chinese Hamster; settings: no endogenous β-galactosidase, 3 hr at 37° C., excitation 633 nm
Experimental: The experiments shown in FIGS. 7-9, were conducted under similar conditions to those of FIGS. 1-3, respectively, with the exception that Chinese Hamster Ovary (CHO) cells were used.

E. coli β-galactosidase = E. coli β-galactosidase (Escherichia coli, UniProt P00722); settings: psi 2 BAGα cells constitutively expressing β-galactosidase; 3 hr at 37° C.; excitation 633 nm; emission 685-710 nm (panel B)
Sequence of E. coli β-galactosidase (P00722 whole entry): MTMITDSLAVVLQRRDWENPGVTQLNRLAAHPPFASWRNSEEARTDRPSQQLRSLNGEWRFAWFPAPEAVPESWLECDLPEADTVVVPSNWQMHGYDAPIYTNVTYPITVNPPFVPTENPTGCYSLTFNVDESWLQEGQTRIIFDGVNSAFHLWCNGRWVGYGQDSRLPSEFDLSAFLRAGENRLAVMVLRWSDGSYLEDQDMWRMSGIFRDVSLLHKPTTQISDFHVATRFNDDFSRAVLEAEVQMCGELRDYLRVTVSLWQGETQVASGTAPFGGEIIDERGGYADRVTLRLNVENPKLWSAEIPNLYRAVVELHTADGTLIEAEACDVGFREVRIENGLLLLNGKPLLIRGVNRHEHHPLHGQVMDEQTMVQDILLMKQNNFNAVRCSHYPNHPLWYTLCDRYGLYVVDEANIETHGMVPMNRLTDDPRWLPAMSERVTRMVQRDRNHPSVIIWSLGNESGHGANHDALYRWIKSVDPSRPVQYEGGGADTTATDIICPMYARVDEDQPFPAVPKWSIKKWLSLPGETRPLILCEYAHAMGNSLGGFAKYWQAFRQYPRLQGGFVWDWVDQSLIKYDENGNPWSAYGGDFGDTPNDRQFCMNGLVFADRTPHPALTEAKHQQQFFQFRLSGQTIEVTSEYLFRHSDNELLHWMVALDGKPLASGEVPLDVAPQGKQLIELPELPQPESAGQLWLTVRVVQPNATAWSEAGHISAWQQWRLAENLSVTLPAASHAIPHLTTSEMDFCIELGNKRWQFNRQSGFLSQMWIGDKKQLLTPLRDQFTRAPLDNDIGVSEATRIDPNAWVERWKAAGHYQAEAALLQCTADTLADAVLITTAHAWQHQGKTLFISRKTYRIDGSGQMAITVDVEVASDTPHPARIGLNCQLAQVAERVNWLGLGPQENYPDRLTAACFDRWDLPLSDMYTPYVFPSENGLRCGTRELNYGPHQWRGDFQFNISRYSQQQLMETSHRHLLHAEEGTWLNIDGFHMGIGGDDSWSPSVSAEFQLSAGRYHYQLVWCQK
Experimental: Psi 2 BAGα cells (ATCC, catalog no. CRL-9560) in Dulbecco's modified Eagle's medium (ATCC, catalog no. 30-2002) containing 5% Fetal Bovine Serum (FBS, HyClone, catalog no. SH30071.03) and 1% penicillin-streptomycin solution (pen/strep, ATCC, catalog no. 30-2300) were seeded (200 μl/well, 10,000 cell/well) in black 96 well microtiter plates (ABI, catalog no. 4308776). […] After overnight incubation at 37° C. under 5% CO2 the supernatants were removed carefully so as not to detach the adherent cells from the wells. Solutions of liposome encapsulated DDAO-gal, liposome encapsulated DDAO and nonencapsulated DDAO-gal were prepared in the appropriate cell medium and then added to the cells (200 μl/well). The nonencapsulated DDAO-gal solution was used as a negative control (no liposome, passive uptake) and the liposome encapsulated DDAO solution was used as a positive control (DDAO is the product of DDAO-gal hydrolysis). After incubation for 3 hr at 37° C. under 5% CO2 the staining solutions were removed carefully and the cells were washed twice with Dulbecco's PBS (200 μl, ATCC, catalog no. 30-2200). PBS (200 μl) was added to the wells and the plate was read using an 8100 FMAT instrument (Applied Biosystems, an Applera Corporation business).
DDAO-gal without liposomes were used as a negative control (passive load) and liposomes containing DDAO were used as a positive control. […]

CC1(C)C2=C(Cl)C(=O)C(Cl)=CC2=Nc2ccc(O[C@@H]3O[C@H](CO)[C@H](O)[C@H](O)[C@H]3O)cc21 [DDAO-gal, 9H-(1,3-dichloro-9,9-dimethylacridin-2-one-7-yl) β-D-galactopyranoside]
fluorescent signal (CHO cells): signal observed
fluorescent signal (E. coli β-galactosidase): much lower signal
